Laboratory results published in US8486398B2, “Anticoagulant antidotes comprising antibodies that bind dabigatran and/or related compounds” (Boehringer Ingelheim International GmbH, priority 2010, dated 2013).
Values joined by “and” are separate entries in the source; they are usually repeats but may differ in a detail not shown here. Equal entries are not always repeated. Where two headings read alike, the source gives them in different places.

What was measured:
[1] = compared with dabigatran; cited from earlier work
thrombin = thrombin (Bos taurus, UniProt P00735)
Method: Briefly human plasma is obtained by taking whole blood into 3.13% sodium citrate. This is then centrifuged to obtain platelet free plasma and transferred to a separate tube and frozen until required on the day of the assay. Plasma is thawed at 37° C. on the day of the assay.
The thrombin clotting time is performed as follows. First thrombin is diluted to manufacturer's specification (3 IU/mL thrombin) in the buffer provided (Dade Behring Test kit) and prewarmed to 37° C. It is used within 2 hrs of being prepared. All assays were performed on a commercially available CL4 clotting machine (Behnk Electronics, Norderstadt, Germany). Fifty μL of plasma is pipetted into provided cuvettes with a magnetic stirrer and allowed to stir for 2 min in the well preheated to 37° C. in the CL4 machine. At this point 100 μL of the thrombin solution is added and the time required for the plasma sample to clot is recorded automatically by the CL4. Dabigatran is preincubated for 5 min in plasma in the provided cuvettes, before adding thrombin and starting the measurement. If antibody is also tested (up 50 μL of stock solution), there is a further 5 minute incubation at 37° C. before beginning clotting (i.e. 10 min total incubation with dabigatran, 5 min total incubation with antibody and then clotting is initiated with thrombin).

## Cn1c(CNc2ccc(C(=N)N)cc2)nc2cc(C(=O)N(CCC(=O)OC3OC(C(=O)O)C(O)C(O)C3O)c3ccccn3)ccc21 (stereo not drawn) [1-O-acylglucuronide]
[1]
  prolongation of the activated partial thromboplastin time: equipotent prolongation of the activated partial thromboplastin time compared with dabigatran

## Cn1c(CNc2ccc(C(=N)N)cc2)nc2cc(C(=O)N(CCC(=O)O)c3ccccn3)ccc21 [dabigatran, N-[2-(4-Amidinophenylaminomethyl)-1-methyl-1H-benzimidazol-5-ylcarbonyl]-N-(2-pyridyl)-beta-alanine]
thrombin; 200 nM dabigatran preincubated with human plasma, baseline 10.9-11 seconds
  thrombin clotting time: 51 s and 63.7 s
thrombin; 200 nM dabigatran, human plasma
  elevation in clotting time over baseline: ~5 fold
thrombin; 500 nM dabigatran, human plasma
  increase in clotting time over baseline: ~10 fold
thrombin; 500 nM dabigatran, human plasma, baseline 10.9 seconds
  thrombin clotting time: 111.7 s
thrombin; increasing concentrations of dabigatran, human plasma
  concentration dependence of thrombin clotting time: concentration-dependent increase in the thrombin clotting time
